Source: US20250032499A1, “METHODS OF TREATING PERIPHERAL T-CELL LYMPHOMA” (Secura Bio, Inc., priority 2021, published 2025)

Key:
[1] = system: patients with relapsed or refractory peripheral T-cell lymphoma (R/R PTCL); test: Phase 2 open-label parallel cohort trial of duvelisib in R/R PTCL, dose-optimization phase (25 mg BID vs 75 mg BID); format: in vivo, human; conditions: for overall response rate (ORR): 28-day cycles, oral
Description: Prior to the present disclosure, Applicant ran a clinical trial using duvelisib to treat PTCL. The trial included two cohorts. In cohort 1, subjects were orally administered duvelisib at a starting dose of 25 mg twice daily (BID), with potential escalation on a per-patient basis to 50 mg BID and then 75 mg BID, based on the patient's response to and tolerance of therapy. Doses were administered in 28-day cycles. In cohort 2, subjects were orally administered 75 mg duvelisib BID, in 28-day cycles. The overall response rate (ORR) in the 75 mg BID cohort was 54% ORR.
A phase 2, open-label, multi-center, parallel cohort trial of duvelisib in R/R PTCL was carried out. Patients were treated with duvelisib for two 28-day cycles with either 25 mg BID (DUV25) or 75 mg BID (DUV75). Patients with pathologically confirmed R/R PTCL (WHO criteria) after ≥2 cycles of ≥1 prior standard regimen, and a CD4 lymphocyte count of ≥50/mm^3 were eligible for enrollment in the study.

[2] = system: patients with relapsed or refractory peripheral T-cell lymphoma (R/R PTCL); test: Expansion phase (PRIMO-EP) of the trial in R/R PTCL: duvelisib 75 mg BID for 2 cycles, then 25 mg BID; format: in vivo, human; conditions: for AESI Cutaneous reactions, % / AESI Diarrhea, % / AESI Infections, % / AESI Neutropenia/neutrophil count decreased, % / AESI Pneumonia, % / AESI Pneumonitis, % / AESI Transaminase elevation, % / AESI Colitis, %: all grades
Description: An expansion phase of the above trial described in Example 1 was carried out. Based on the dose optimization results, patients in the expansion phase received duvelisib at 75 mg BID for 2 cycles to maximize rapid tumor control, followed by 25 mg BID to maintain long-term disease control and mitigate late toxicities, until progressive disease (PD) or unacceptable toxicity. The primary endpoint was the overall response rates (ORR) as assessed by the Independent Review Committee (IRC), and secondary endpoints included ORR by INV assessment, duration of response (DOR), progression free survival (PFS), overall survival (OS), disease control rate (DCR), and safety. […] Analysis was performed on data collected from a total of 101 patients with a median follow-up of 8.7 months from time of first response. All patients had pathologically confirmed PTCL (WHO criteria) with a CD4 lymphocyte count of ≥50/mm^3 and received ≥2 cycles of ≥1 prior standard regimen. Prior treatments received included CHOP/R-CHOP, CHOEP/EPOCH, or BV/BV-chemo (all 36.60% r), salvage chemo after CHOP/R-CHOP or CHOEP/EPOCH (37.60), and SCT (21.80). The mean treatment duration was 17.1 weeks, and the median (range) treatment duration was 9.0 (1-79) weeks. Exposure by treatment duration included 43.6% (≤2 cycles), 23.8% (>2-4 cycles), and […] (>4 cycles). The ORR by IRC was […]. In patients with ≥3 prior lines, the ORR was maintained (49.10%).

[3] = Prior Salvage Chemotherapy CHOP/R-CHOP or CHOEP/EPOCH
[4] = all causality, 1 prior regimen (N = 26)
[5] = all causality, 2 prior regimens (N = 22)
[6] = all causality, 3+ prior regimens (N = 53)
[7] = all causality, Tx Duration >2-4 cycles (N = 56)
[8] = all causality, Tx Duration >4 cycles (N = 31)
[9] = all causality, Tx Duration ≤2 cycles (N = 101)

SMILES: C[C@H](Nc1ncnc2[nH]cnc12)c1cc2cccc(Cl)c2c(=O)n1-c1ccccc1 [duvelisib, (S)-3-(1-((9H-purin-6-yl)amino)ethyl)-8-chloro-2-phenylisoquinolin-1(2H)-one]
- overall response rate (ORR) ([1]; 25 mg BID cohort (N=20)): 35%
- patients with disease progression, 25 mg BID cohort compared to 75 mg BID ([1]; 25 mg BID cohort vs 75 mg BID cohort): three times as many patients experienced disease progression
- overall response rate (ORR) ([1]; 75 mg BID cohort (N=13)): 54%
- Discontinuations due to AEs ([1]; DUV25, 25 mg BID): 30%
- TEAEs leading to discontinuation ([1]; DUV25, 25 mg BID): disease progression, pneumonitis (2 patients each), cardiac arrest, hypercalcemia, hyperglycemia, pneumonia, rash maculopapular, and respiratory failure (1 each)
- fatal AEs (number) ([1]; DUV25, 25 mg BID): 5
- Serious TEAEs occurred in ([1]; DUV25, 25 mg BID (n=15/20)): 75%
- Discontinuations due to AEs ([1]; DUV75, 75 mg BID): 8%
- TEAEs leading to discontinuation ([1]; DUV75, 75 mg BID): disease progression, infectious colitis, and sepsis (1 each)
- fatal AEs (number) ([1]; DUV75, 75 mg BID (disease progression)): 1
- Serious TEAEs occurred in ([1]; DUV75, 75 mg BID (n=9/13)): 69%
- manageability of most TEAEs ([1]; both cohorts): manageable with dose reductions and dose holds
- Serious TEAEs in ≥2 patients ([1]; both cohorts (N=33)): colitis, diarrhea, abdominal pain, pyrexia, PD, sepsis, pneumonia, hyponatremia, rash maculopapular, dyspnea, and respiratory failure
- Response (CR + PR) by number of prior regimens ([2]; 1 prior regimen (n = 26)): 34.6%
- Response (CR + PR) by number of prior regimens ([2]; 2 prior regimens (n = 22)): 63.6%
- Response (CR + PR) by number of prior regimens ([2]; 3+ prior regimens (n = 53)): 49.1%
- TEAEs leading to dose hold ([2]; % of patients): 37.6%
- TEAEs leading to dose reduction ([2]; % of patients): 3.0%
- diarrhea ([2]; AE, all causality, maximum GR3): 7.9%
- increased alanine aminotransferase (ALT) ([2]; AE, all causality, maximum GR3): 14.9%
- increased aspartate aminotransferase (AST) ([2]; AE, all causality, maximum GR3): 13.4%
- neutropenia ([2]; AE, all causality, maximum GR3): 13.8%
- rash maculo-papular ([2]; AE, all causality, maximum GR3): 7.9%
- increased ALT ([2]; AE, all causality, maximum GR4): 5.9%
- Median (range) PFS ([2]; N = 101): 3.62 (0.03+-17.2+) months
- deaths in TEAEs other than PD (total) ([2]; N = 101): 8
- BOR by prior therapy: CR ([2]; Prior BV or BV-chemo): 32.4 % of subgroup
- BOR by prior therapy: PR ([2]; Prior BV or BV-chemo): 10.8 % of subgroup
- BOR by prior therapy: SD ([2]; Prior BV or BV-chemo): 0 % of subgroup
- BOR by prior therapy: CR ([2]; Prior CHOEP/EPOCH): 27.0 % of subgroup
- BOR by prior therapy: PR ([2]; Prior CHOEP/EPOCH): 27.0 % of subgroup
- BOR by prior therapy: SD ([2]; Prior CHOEP/EPOCH): 0 % of subgroup
- BOR by prior therapy: CR ([2]; Prior CHOP/R-CHOP): 37.8 % of subgroup
- BOR by prior therapy: PR ([2]; Prior CHOP/R-CHOP): 5.4 % of subgroup
- BOR by prior therapy: SD ([2]; Prior CHOP/R-CHOP): 2.7 % of subgroup
- BOR by prior therapy: CR ([2]; Prior SCT): 22.7 % of subgroup
- BOR by prior therapy: PR ([2]; Prior SCT): 27.3 % of subgroup
- BOR by prior therapy: SD ([2]; Prior SCT): 0 % of subgroup
- BOR by prior therapy: CR [2, 3]: 44.7 % of subgroup
- BOR by prior therapy: PR [2, 3]: 7.9 % of subgroup
- BOR by prior therapy: SD [2, 3]: 0 % of subgroup
- AESI Cutaneous reactions, % [2, 4]: (38.5) %
- AESI Diarrhea, % [2, 4]: (15.4) %
- AESI Infections, % [2, 4]: (30.8) %
- AESI Neutropenia/neutrophil count decreased, % [2, 4]: (38.5) %
- AESI Pneumonia, % [2, 4]: (3.8) %
- AESI Pneumonitis, % [2, 4]: (3.8) %
- AESI Transaminase elevation, % [2, 4]: (65.4) %
- AESI Cutaneous reactions, % [2, 5]: (54.5) %
- AESI Diarrhea, % [2, 5]: (27.3) %
- AESI Infections, % [2, 5]: (31.8) %
- AESI Neutropenia/neutrophil count decreased, % [2, 5]: (27.3) %
- AESI Transaminase elevation, % [2, 5]: (40.9) %
- AESI Colitis, % [2, 6]: (1.9) %
- AESI Cutaneous reactions, % [2, 6]: (24.5) %
- AESI Diarrhea, % [2, 6]: (39.6) %
- AESI Infections, % [2, 6]: (49.1) %
- AESI Neutropenia/neutrophil count decreased, % [2, 6]: (32.1) %
- AESI Pneumonia, % [2, 6]: (3.8) %
- AESI Pneumonitis, % [2, 6]: (1.9) %
- AESI Transaminase elevation, % [2, 6]: (34.0) %
- AESI Cutaneous reactions, % [2, 7]: (28.6) %
- AESI Diarrhea, % [2, 7]: (14.3) %
- AESI Infections, % [2, 7]: (16.1) %
- AESI Neutropenia/neutrophil count decreased, % [2, 7]: (14.3) %
- AESI Pneumonitis, % [2, 7]: (1.8) %
- AESI Transaminase elevation, % [2, 7]: (30.4) %
- AESI Colitis, % [2, 8]: (3.2) %
- AESI Cutaneous reactions, % [2, 8]: (22.6) %
- AESI Diarrhea, % [2, 8]: (22.6) %
- AESI Infections, % [2, 8]: (32.3) %
- AESI Neutropenia/neutrophil count decreased, % [2, 8]: (25.8) %
- AESI Pneumonia, % [2, 8]: (3.2) %
- AESI Cutaneous reactions, % [2, 9]: (19.8) %
- AESI Diarrhea, % [2, 9]: (19.8) %
- AESI Infections, % [2, 9]: (26.7) %
- AESI Neutropenia/neutrophil count decreased, % [2, 9]: (28.7) %
- AESI Pneumonia, % [2, 9]: (2.0) %
- AESI Pneumonitis, % [2, 9]: (1.0) %
- response rates regardless of number of prior regimens ([2]; all prior-regimen subgroups): ≥ 35%
- Median duration of response ([2]; all responders): 7.7 months
- increase of rate of cutaneous reactions ([2]; from Cycle ≤2 to Cycle >4): 2.8%
- increase of rate of diarrhea ([2]; from Cycle ≤2 to Cycle >4): 2.8%
- increase of rate of infections ([2]; from Cycle ≤2 to Cycle >4): 5.6%
- tolerability ([2]; interim results of the expansion phase): well tolerated
- Incidence of pneumonia, pneumonitis, and colitis ([2]; regardless of treatment duration, Cycle ≤2 to Cycle >4): 0-3.2%
- Median duration of response ([2]; those in CR): 7.4 months
